SMILES strings stand for the structures.

One data set concerns adrenergic. In words: Effects in vitro on muscle: receptor activation. Also noted: species or system rats. The note with it: rat muscle in vitro, 10⁻⁵ to 10⁻⁸M. As to the method: (§1) Effects in vitro on muscle. Muscle from many organs of rats was tested with 10⁻⁵ to 10⁻⁸M enviroxime.
The subject of another data set is histamine. Description: Effects in vitro on muscle: receptor activation. Also on record: species or system rats. The note with it: rat muscle in vitro, 10⁻⁵ to 10⁻⁸M. As to the method:
as §1

The subject of another data set is prostaglandin E2. Description: Effects in vitro on muscle: receptor activation. Also noted: species or system rats. The note with it: rat muscle in vitro, 10⁻⁵ to 10⁻⁸M. As to the method:
as §1

The subject of data set [1] is Muscle from many organs of rats. In words: Effects in vitro on muscle: antagonism of dose response curves. The note with it: rat muscle in vitro, 10⁻⁵ to 10⁻⁸M; similar to that of potassium chloride. As to the method:
as §1

A short description of data set [2]: Animal tolerance: effects on electrolytes and urine output. Type of data set: in vivo. The note with it: rats. The text has this: Effects on electrolytes. […] The oliguria was associated with increases in potassium in serum but not sodium.
Data set [3] is described as follows: Animal tolerance: effects of oral doses in mice. Type of data set: in vivo.
In data set [4] the test system is primary antibody response. Type of data set: in vivo. The note with it: mice.
Data set [5] can be described thus: Animal tolerance: cardiovascular effects in cats. Type of data set: in vivo. On the procedure: (§2) Effects on cats and dogs. […] Plasma concentrations of enviroxime were 3.0, 8.9 and 19 µg/mL following these I.V. doses. Bioassay (antiviral) and biochemical assay of blood yielded similar results.
Data set [6] is described as follows: Animal tolerance: diastolic blood pressure in dogs. Type of data set: in vivo. The note with it: following 1, 3, and 10 mg/kg I.V. doses. As to the method:
as §2

Data set [7] is described as follows: Plasma concentration after I.V. doses. Type of data set: in vivo, dogs. As to the method:
as §2

Another data set relates to rhinoviruses. The note with it: all rhinoviruses tested; generally range; cited from earlier work.
Another data set has as its system polioviruses. The note with it: cited from earlier work.
In the next data set the test system is echoviruses. The note with it: cited from earlier work.
Another data set deals with coxsackieviruses. The note with it: cited from earlier work.
The test system of a further data set is cells in culture. The note with it: cited from earlier work.
For data set [8] the following is noted: cited from earlier work.
The mark [9] stands for this setting: associated with the oliguria at 25 mg/kg and above.

Consider `CC(C)S(=O)(=O)n1c(N)nc2ccc(/C(=N/O)c3ccccc3)cc21` [enviroxime], for which the “activation of adrenergic receptors” value in the data set with adrenergic was “did not activate”. The “activation of histamine receptors” value with histamine is on record as “did not activate”. Moreover, in the data set with prostaglandin E2, the “activation of prostaglandin E2 receptors” value is “did not activate”. Moreover, the “antagonism of dose response curves” value in [1] was “some non-competitive antagonism”. In [2] (setting [9]), the potassium in serum entry is “increases”. For the same molecule, the sodium in serum result in data set [2] (setting [9]) is “not”. The oliguria entry in data set [2] (dose of 25 mg/kg and above) is recorded as “significant oliguria”. Moreover, the effects in mice entry in [3] (50 mg/kg orally) is “no detectable effects”; in data set [3] (higher doses, 100-400 mg/kg), “increasing leg weakness, decreased motor activity and gait disturbances”. The “onset of the effect of high doses” value in [3] (mice, high doses) was “within a few minutes”. In [3] (oral doses up to 100 mg/kg, a number of other tests), the “tolerance of oral doses” value is “well tolerated”. In addition, the “immune suppressive activity on primary antibody response” value in data set [4] is listed as “no immune suppressive activity”. In addition, the cardiovascular effects entry in data set [5] is on record as “no significant cardiovascular effects”. The diastolic blood pressure entry in data set [6] is recorded as “some stepwise depression”. Also, the values for the Plasma concentrations in [7] (following 1 mg/kg I.V. dose), in data set [7] (following 3 mg/kg I.V. dose) and in data set [7] (following 10 mg/kg I.V. dose) were 3000 ng/mL, 8900 ng/mL and 19000 ng/mL, respectively. Moreover, the inhibitory concentrations in the data set on rhinoviruses is reported as 0.3 to 0.9 µg/mL. Further, the activity against polioviruses entry with polioviruses was “active”. Further, the activity against echoviruses result with echoviruses is “active”. Besides, the activity against coxsackieviruses entry with coxsackieviruses is “active”. The “Maximum tolerated concentrations for cells in culture” value with cells in culture was 4 to 100 µg/mL. Also, in [8], the soluble in water was 1 to 2 µg/mL.

Values taken from EP0267050B1, “Aerosols containg liposomes and method for their preparation” (priority 1986, dated 1988).
